From patent US4452813A, “Sulfonate derivatives, process for preparing same and antilipemic compositions containing the derivative” (Taiho Pharmaceutical Company Limited, priority 1981, dated 1984) come the findings set out here.

Molecules are shown by their SMILES.

Tested on in one series: not listed separately
The series is described as follows: Acute toxicity, oral, one week. The settings on record: rat, in vivo, 5% gum arabic suspension. From the text: Six-week-old male Wister rats weighing 180 to 200 g are used, 5 rats in each group. The present compound is suspended in a 5% aqueous solution of gum arabic, and the suspension is orally given to the rats. For one week after the start of the test, the rats are checked evey day for general toxicity symptoms, body weight and death to determine the LD50 value.
As a reminder, the LD50 is the dose expected to kill half of the subjects tested. Low readings indicate greater toxicity, high ones lower toxicity. Regarding `COc1ccc(S(=O)(=O)OCC(=O)CC(C)C2CCCCC2)cc1` (stereo not shown) [Compound 10, 4-cyclohexyl-1-(4-methoxybenzenesulfonyloxy)2-pentanone], the LD50 at 168 h was above 3000 mg/kg.
Compound `CCC(C)[C@H]1CC[C@H](C(=O)COS(=O)(=O)c2ccccc2)CC1` (stereo partly shown) [Compound 33] gave an LD50 at 168 h above 3000 mg/kg.
Turning to `CCC(C)[C@H]1CC[C@@H](C(=O)COS(=O)(=O)c2ccccc2)CC1` (stereo partly shown) [Compound 32], the 50% lethal dose (LD50) at 168 h is above 3000 mg/kg.
Regarding `CC(C)C[C@H]1CC[C@@H](C(=O)COS(=O)(=O)c2ccccc2)CC1` [Compound 30], the LD50 at 168 h was above 3000 mg/kg.
The same measure, in the same setting: the result for `CC(CC1CCCCC1)C(=O)COS(=O)(=O)c1ccccc1` (stereo not shown) [Compound 1, 1-benzenesulfonyloxy-4-cyclohexyl-3-methyl-2-butanone] reads above 2000 mg/kg.
With `Cc1ccc(S(=O)(=O)OCC(=O)C(C)CC2CCCCC2)cc1` (stereo not shown) [Compound 2], the LD50 at 168 h is above 2000 mg/kg.
The compound `CC1CCCCC1CC(=O)COS(=O)(=O)c1ccccc1` (stereo not shown) [Compound 17, 1-benzenesulfonyloxy-3-(2-methylcyclohexyl)-2-propanone] showed a median lethal dose (LD50) at 168 h above 2000 mg/kg.
`CCOc1ccc(S(=O)(=O)OCC(=O)[C@H]2CC[C@H](C(C)C)CC2)cc1` [Compound 27] registered an LD50 at 168 h above 3000 mg/kg.
As for `CC(CC(=O)COS(=O)(=O)c1ccccc1)C1CCCCC1` (stereo not shown) [Compound 8], the LD50 at 168 h is above 3000 mg/kg.
Still for that read-out and setting: the result for `Cc1cc(C)c(S(=O)(=O)OCC(=O)[C@H]2CC[C@@H](C(C)C)CC2)c(C)c1` [Compound 28] reads above 3000 mg/kg; that for `Cc1ccc(S(=O)(=O)OCC(=O)[C@H]2CC[C@@H](C(C)(C)C)CC2)cc1` [Compound 36], above 3000 mg/kg; that for `CC(C)[C@H]1CC[C@@H](C(=O)COS(=O)(=O)c2ccccc2)CC1` [Compound 24], above 3000 mg/kg.
`CCC(CC1CCCCC1)C(=O)COS(=O)(=O)c1ccc(OC)cc1` (stereo not shown) [Compound 6] came in with an LD50 at 168 h above 3000 mg/kg.
For `CCOc1ccc(S(=O)(=O)OCC(=O)CC2CCCCC2C)cc1` (stereo not shown) [Compound 19], the LD50 at 168 h was above 3000 mg/kg.

A further series addresses Chymotripsin (Bos taurus, UniProt P00766). The series is described as follows: Chymotripsin inhibiting activity (hydrolysis of ATEE). The class given is biochemical. The settings on record: 0.5 h; 1 × 10^-4 mol; 20 min preincubation, ATEE 30 min, 37° C., pH 8.0. As to the method: 2. Chymotripsin Inhibiting Activity
Chymotripsin (0.1 unit) serving as an enzyme solution is added to a specified quantity of buffer solution (pH 8.0) containing 0.1 mole of trishydrochloric acid. To the mixture is further added a 50% ethanol solution of the compound of the invention. The mixture is reacted at 37° C. for 20 minutes.
On completion of the reaction, 10 micromoles of […] (ATEE) serving as a substrate is added to the mixture, and the resulting mixture is reacted at 37° C. for 30 minutes.
After the completion of the reaction, the amount of remaining ATEE is determined by the same hydroxamic acid method as above. The percent chymotripsin inhibition is given by [formula] wherein A is the amount of hydrolzed esters in the reaction system not containing the compound of the invention, and B is the amount of hydrolyzed esters in the reaction system containing the present compound.
One may read the inhibition as the relative decrease from the control value, in per cent. Lower therefore signals little suppression. `COc1ccc(S(=O)(=O)OCC(=O)CC(C)C2CCCCC2)cc1` (stereo not shown) [Compound 10, 4-cyclohexyl-1-(4-methoxybenzenesulfonyloxy)2-pentanone] showed an inhibition at 100 µM of 22%.
`CCC(C)[C@H]1CC[C@H](C(=O)COS(=O)(=O)c2ccccc2)CC1` (stereo partly shown) [Compound 33] gave an inhibition at 100 µM of 19%.
Take `CCC(C)[C@H]1CC[C@@H](C(=O)COS(=O)(=O)c2ccccc2)CC1` (stereo partly shown) [Compound 32]: 100 µM produced 13% inhibition.
Same read-out and setting: the figure for `CC(C)C[C@H]1CC[C@@H](C(=O)COS(=O)(=O)c2ccccc2)CC1` [Compound 30] is 30%.
Turning to `CC(CC1CCCCC1)C(=O)COS(=O)(=O)c1ccccc1` (stereo not shown) [Compound 1, 1-benzenesulfonyloxy-4-cyclohexyl-3-methyl-2-butanone], the inhibition at 100 µM was determined as 100%.
`Cc1ccc(S(=O)(=O)OCC(=O)C(C)CC2CCCCC2)cc1` (stereo not shown) [Compound 2] had an inhibition at 100 µM of 90%.
Consider `CC1CCCCC1CC(=O)COS(=O)(=O)c1ccccc1` (stereo not shown) [Compound 17, 1-benzenesulfonyloxy-3-(2-methylcyclohexyl)-2-propanone], for which 100 µM produced 97% inhibition.
With `CCOc1ccc(S(=O)(=O)OCC(=O)[C@H]2CC[C@H](C(C)C)CC2)cc1` [Compound 27], the inhibition at 100 µM turned out to be 35%.
For the compound `CC(CC(=O)COS(=O)(=O)c1ccccc1)C1CCCCC1` (stereo not shown) [Compound 8], testing at 100 µM gave an inhibition of 31%.
The same measure, in the same setting: the result for `Cc1ccc(S(=O)(=O)OCC(=O)[C@H]2CC[C@@H](C(C)(C)C)CC2)cc1` [Compound 36] reads 44%.
Compound `CC(C)[C@H]1CC[C@@H](C(=O)COS(=O)(=O)c2ccccc2)CC1` [Compound 24] returned an inhibition at 100 µM of 16%.
`CCOc1ccc(S(=O)(=O)OCC(=O)CC2CCCCC2C)cc1` (stereo not shown) [Compound 19] yielded an inhibition at 100 µM of 57%.

The target in the next series is esterase (purified microsome fraction of the liver of a rat). In words: Esterase inhibiting activity (hydrolysis of methyl butyrate). The settings on record: methyl butyrate substrate, pH 8.0, 37° C., 60 minutes. The class given is biochemical. As to the method:
1. Esterase Inhibiting Activity
A 10 micromole quantity of methyl butyrate in a 50% ethanol solution is added as a substrate to a specified amount of buffer solution (pH 8.0) containing 0.1 mole of trishydrochloric acid. To the mixture is further added a 50% ethanol solution of the compound of the invention, immediately followed by addition of an esterase solution prepared from a purified microsome fraction of the liver of a rat (adjusted to hydrolyze 9 micromoles of methyl butyrate at 37° C. in one hour). The mixture is reacted at 37° C. for 60 minutes.
After the reaction, alkaline hydroxylamine is added to the mixture to form a hydroxamic acid derivative of methyl butyrate, and a ferric salt is added to the derivative. The resulting red color is colorimetrically determined (at a wavelength of 540 nm) to determine the amount of remaining methyl butyrate. The esterase inhibiting ratios of the present compound at least at three concentrations are plotted as ordinate, and the logarithms of the concentrations as abscissa to obtain a line, which gives the 50% inhibition concentration (IC50).
One may read the IC50 as the point on the concentration scale where inhibition reaches its midpoint. Higher therefore signals lower potency. In the case of `COc1ccc(S(=O)(=O)OCC(=O)CC(C)C2CCCCC2)cc1` (stereo not shown) [Compound 10, 4-cyclohexyl-1-(4-methoxybenzenesulfonyloxy)2-pentanone], inhibition was half-maximal at 3.5 µM (IC50).
The same measure, in the same setting: the result for `CCC(C)[C@H]1CC[C@H](C(=O)COS(=O)(=O)c2ccccc2)CC1` (stereo partly shown) [Compound 33] reads 0.17 µM; that for `CCC(C)[C@H]1CC[C@@H](C(=O)COS(=O)(=O)c2ccccc2)CC1` (stereo partly shown) [Compound 32], 0.56 µM.
`CC(C)C[C@H]1CC[C@@H](C(=O)COS(=O)(=O)c2ccccc2)CC1` [Compound 30] displayed an IC50 of 4 µM.
Consider `CC(CC1CCCCC1)C(=O)COS(=O)(=O)c1ccccc1` (stereo not shown) [Compound 1, 1-benzenesulfonyloxy-4-cyclohexyl-3-methyl-2-butanone], for which the IC50 is 0.35 µM.
With `Cc1ccc(S(=O)(=O)OCC(=O)C(C)CC2CCCCC2)cc1` (stereo not shown) [Compound 2], the concentration for half-maximal inhibition (IC50) was 7.8 µM. Against the preceding compound, the IC50 is about 22-fold higher.
`CC1CCCCC1CC(=O)COS(=O)(=O)c1ccccc1` (stereo not shown) [Compound 17, 1-benzenesulfonyloxy-3-(2-methylcyclohexyl)-2-propanone] returned a half-inhibitory concentration (IC50) of 0.032 µM.
`CCOc1ccc(S(=O)(=O)OCC(=O)[C@H]2CC[C@H](C(C)C)CC2)cc1` [Compound 27] displayed a half-maximal inhibitory concentration (IC50) of 2 µM.
In turn, `CC(CC(=O)COS(=O)(=O)c1ccccc1)C1CCCCC1` (stereo not shown) [Compound 8] came in with an IC50 of 0.8 µM.
In turn, `Cc1cc(C)c(S(=O)(=O)OCC(=O)[C@H]2CC[C@@H](C(C)C)CC2)c(C)c1` [Compound 28] displayed an IC50 of 1.2 µM.
For the compound `Cc1ccc(S(=O)(=O)OCC(=O)[C@H]2CC[C@@H](C(C)(C)C)CC2)cc1` [Compound 36], the IC50 worked out at 86 µM. Against the preceding compound, the IC50 is about 72-fold higher.
In the case of `CC(C)[C@H]1CC[C@@H](C(=O)COS(=O)(=O)c2ccccc2)CC1` [Compound 24], the IC50 stood at 0.7 µM.
`CCOc1ccc(S(=O)(=O)OCC(=O)CC2CCCCC2C)cc1` (stereo not shown) [Compound 19]: half-maximal inhibition (IC50) was put at 5.4 µM.

The next series deals with triglycerides content in the plasma. The series is described as follows: Antilipemic effect: inhibition of olive oil-induced hyperlipidemia, plasma triglycerides. It is filed as in vivo, male Wister rats. The settings on record: Rattus norvegicus, 100 mg compound in 5 ml olive oil, 5 ml/kg oral, 2 hours, read-out: Antilipemic effect IGI (%) (percent hyperlipidemia inhibition, triglycerides). As to the method: Seven-week-old male Wister rats weighing 200 to 220 g are used, 5 rats in each group.
The compound of the invention (100 mg) is dissolved in 5 ml of olive oil. The olive oil containing the compound is orally given to the rat with a probe at a dose of 5 ml/kg. Two hours thereafter, 6 ml of whole blood is withdrawn from the descending aorta of the rat under ether anesthesia with a syringe containing heparin. The blood is centrifuged at 5° C. and 3000 r.p.m. to obtain the plasma. The plasma collected is used for determining the triglycerides content, using a triglycerides measuring kit (trade mark "Triglycerides-B Test Wako," product of Wako Junyaku Co., Ltd., Japan). Olive oil containing no compound is similarly given to a control group, while no treatment is conducted for a normal group. The triglycerides content in the plasma is also determined for these groups in the same manner as is the case with the test groups.
The percent hyperlipidemia inhibition achieved by the present compound is given by [formula] in which A is the triglycerides content of the control group, B is the triglycerides content of the normal group, and C is the triglycerides content of the group to which the present compound is given.
Turning to `COc1ccc(S(=O)(=O)OCC(=O)CC(C)C2CCCCC2)cc1` (stereo not shown) [Compound 10, 4-cyclohexyl-1-(4-methoxybenzenesulfonyloxy)2-pentanone], the inhibition in vivo at 100 mg/kg turned out to be 46%.
As for `CCC(C)[C@H]1CC[C@H](C(=O)COS(=O)(=O)c2ccccc2)CC1` (stereo partly shown) [Compound 33], the inhibition in vivo at 100 mg/kg is 76%.
On to `CCC(C)[C@H]1CC[C@@H](C(=O)COS(=O)(=O)c2ccccc2)CC1` (stereo partly shown) [Compound 32], for which the inhibition in vivo at 100 mg/kg was 61%.
With `CC(C)C[C@H]1CC[C@@H](C(=O)COS(=O)(=O)c2ccccc2)CC1` [Compound 30], the inhibition in vivo at 100 mg/kg turned out to be 57%.
For `CC(CC1CCCCC1)C(=O)COS(=O)(=O)c1ccccc1` (stereo not shown) [Compound 1, 1-benzenesulfonyloxy-4-cyclohexyl-3-methyl-2-butanone], the inhibition in vivo at 100 mg/kg worked out at 60%.
Regarding `Cc1ccc(S(=O)(=O)OCC(=O)C(C)CC2CCCCC2)cc1` (stereo not shown) [Compound 2], the inhibition in vivo at 100 mg/kg turned out to be 50%.
Consider `CC1CCCCC1CC(=O)COS(=O)(=O)c1ccccc1` (stereo not shown) [Compound 17, 1-benzenesulfonyloxy-3-(2-methylcyclohexyl)-2-propanone], for which the inhibition in vivo at 100 mg/kg came out at 72%.
The same measure, in the same setting: the result for `CCOc1ccc(S(=O)(=O)OCC(=O)[C@H]2CC[C@H](C(C)C)CC2)cc1` [Compound 27] reads 76%; that for `CC(CC(=O)COS(=O)(=O)c1ccccc1)C1CCCCC1` (stereo not shown) [Compound 8], 73%.
On to `Cc1ccc(S(=O)(=O)OCC(=O)[C@H]2CC[C@@H](C(C)(C)C)CC2)cc1` [Compound 36], for which the inhibition in vivo at 100 mg/kg is 52%.
With `CC(C)[C@H]1CC[C@@H](C(=O)COS(=O)(=O)c2ccccc2)CC1` [Compound 24], the inhibition in vivo at 100 mg/kg was determined as 60%.
With `CCC(CC1CCCCC1)C(=O)COS(=O)(=O)c1ccc(OC)cc1` (stereo not shown) [Compound 6], the inhibition in vivo at 100 mg/kg is 52%.
Still for that read-out and setting: the result for `CCOc1ccc(S(=O)(=O)OCC(=O)CC2CCCCC2C)cc1` (stereo not shown) [Compound 19] reads 74%.
